This note sets out measurements from patent US12208088B2 (Genentech, Inc., priority 2018, dated 2025).

The assay concerns the target HPK1 (Homo sapiens (Human), UniProt Q92918). The assay is described as follows: HPK1 Lantha binding assay ("Lanth"). As to conditions: binding assays; Morrison Ki fit. On the procedure: Example B2: HPK1 Lantha Binding Assay (“Lanth”)
Procedure: I. Compound Dilution:
The compounds to be tested were diluted by preparing 12.5 uL/well of 5 mM compound (100×) in columns 2 and 13 and 10 ul/well of DMSO in columns 3-12, 14-23, and wells A1-H1 and I24-P24 of the compound plate using a Bravo liquid handling platform. For the reference compound, the top concentration was 1 mM. To the plate was added 10 ul 2 mM staurosporine in wells J1-P1 and A24-H24. A 11 point 5-fold compound serial dilution was performed using the Bravo liquid handling platform. From the plate were transferred 2.5 ul of the solutions from column 2 and column 13 to the 10 ul of DMSO in columns 3 and 14 & so on. The compound plate was centrifuged at 2500 rpm for 1 min. From the compound plate was transferred 80 nl of the compounds into an assay plate using the Echo liquid handler system. One compound plate makes two assay plates. Each assay plate is sealed and stored in an N2 cabinet.
The following assay concentrations and times were used: 2 nM HPK1, 2 nM Eu-Anti-GST Ab, and 15 nM Tracer222, with 60 min incubation time.
III. HPK Lantha Binding Assay:
For the binding assay, 4 ul 2×HPK1 and Eu-anti-GST antibody were added to each well of the assay plate using a Multidrop reagent dispenser. The solutions were incubated in a 23 C incubator for 1 h. To each well of the assay plate was added 4 ul 2× Tracer-222 using a Multidrop reagent dispenser. The solutions were again incubated in a 23 C incubator for 1 h. The results of the assay were read using an Envision plate reader with the following parameters: TR_FRET, 340 ex/615 and 665em; 100 usec Delay; and 200 usec integration.
Compound Ki was analyzed using Morrison ki fit model in XL-fit • a. fit=(1−((((E+x)+(Ki*(1+(S/Kd))))−(((((E+x)+(Ki*(1+(S/Kd))))^2)−((4*E)*x))^0.5))/(2*E))) • res=(y−fit) • b. Parameters: • E=enzyme concentration • S=Tracer222 concentration, Kd=Tracer222 Kd • All measurements reported using the same units (uM)
Exemplary compounds were tested in the binding assays.

Molecules are shown by their SMILES.

HPK1, sequence (Q92918 1-346 limits assumed): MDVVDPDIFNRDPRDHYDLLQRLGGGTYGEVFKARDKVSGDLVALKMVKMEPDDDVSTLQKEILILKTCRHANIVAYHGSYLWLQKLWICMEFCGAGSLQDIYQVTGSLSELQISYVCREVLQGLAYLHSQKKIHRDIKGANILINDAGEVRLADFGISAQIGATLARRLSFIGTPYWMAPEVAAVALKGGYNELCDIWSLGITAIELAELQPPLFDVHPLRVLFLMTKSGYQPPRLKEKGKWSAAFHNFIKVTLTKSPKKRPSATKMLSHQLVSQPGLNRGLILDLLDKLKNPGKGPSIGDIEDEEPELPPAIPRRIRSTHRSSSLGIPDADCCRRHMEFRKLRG

In the case of `CC[C@]1(C#N)CC[C@@]2(CNc3ncc(-c4ccc(N)c(C(=O)N(C)C)c4F)c(Cl)c32)C1` (relative stereo) [Compound 152a, 6-Amino-3-((1R,3S)-4′-chloro-3-cyano-3-ethyl-1′,2′-dihydrospiro[cyclopentane-1,3′-pyrrolo[2,3-b]pyridin]-5′-yl)-2-fluoro-N,N-dimethylbenzamide], the Ki (commonly a measure of affinity in units of concentration, obtained from inhibition or displacement) was found to be 4.35 nM. For the compound `CC[C@]1(C(N)=O)CC[C@@]2(CNc3ncc(-c4ccc(N)c(C(=O)N(C)C)c4F)c(Cl)c32)C1` (relative stereo) [Compound 153a, (1R,3S)-5′-(4-Amino-3-(dimethylcarbamoyl)-2-fluorophenyl)-4′-chloro-3-ethyl-1′,2′-dihydrospiro[cyclopentane-1,3′-pyrrolo[2,3-b]pyridine]-3-carboxamide], the Ki is 7.16 nM. The figure for `Cc1noc([C@@]2(C)CC[C@@]3(CNc4ncc(-c5ccc(N)c(C(=O)N(C)C)c5F)c(Cl)c43)C2)n1` (relative stereo) [Compound 156a, 6-Amino-3-((1R,3S)-4′-chloro-3-methyl-3-(3-methyl-1,2,4-oxadiazol-5-yl)-1′,2′-dihydrospiro[cyclopentane-1,3′-pyrrolo[2,3-b]pyridin]-5′-yl)-2-fluoro-N,N-dimethylbenzamide] is 2.63 nM; for `Cc1nc(N)nn1[C@H]1CC[C@@]2(CNc3ncc(-c4ccc(N)c(C(=O)N(C)C)c4F)c(Cl)c32)C1` (relative stereo) [Compound 157a, 6-Amino-3-((1R,3S)-3-(3-amino-5-methyl-1H-1,2,4-triazol-1-yl)-4′-chloro-1′,2′-dihydrospiro[cyclopentane-1,3′-pyrrolo[2,3-b]pyridin]-5′-yl)-2-fluoro-N,N-dimethylbenzamide] it is 109 nM. For `Cc1nc(N)n([C@H]2CC[C@@]3(CNc4ncc(-c5ccc(N)c(C(=O)N(C)C)c5F)c(Cl)c43)C2)n1` (relative stereo) [Compound 158a, 6-Amino-3-((1R,3S)-3-(5-amino-3-methyl-1H-1,2,4-triazol-1-yl)-4′-chloro-1′,2′-dihydrospiro[cyclopentane-1,3′-pyrrolo[2,3-b]pyridin]-5′-yl)-2-fluoro-N,N-dimethylbenzamide], affinity was put at a Ki of 132 nM. On to `Cc1ccn([C@H]2CC[C@@]3(CNc4ncc(-c5ccc(N)c(C(=O)N(C)C)c5F)c(Cl)c43)C2)n1` (relative stereo) [Compound 159a, 6-Amino-3-((1R,3S)-4′-chloro-3-(3-methyl-1H-pyrazol-1-yl)-1′,2′-dihydrospiro[cyclopentane-1,3′-pyrrolo[2,3-b]pyridin]-5′-yl)-2-fluoro-N,N-dimethylbenzamide], for which the Ki came out at 32.2 nM. Regarding `Cc1cc(C#N)n([C@H]2CC[C@@]3(CNc4ncc(-c5ccc(N)c(C(=O)N(C)C)c5F)c(Cl)c43)C2)n1` (relative stereo) [Compound 161a], the Ki worked out at 51 nM. Compound `Cc1cc(C)n([C@H]2CC[C@@]3(CNc4ncc(-c5ccc(N)c(C(=O)N(C)C)c5F)c(Cl)c43)C2)n1` (relative stereo) [Compound 163a, 6-Amino-3-((1R,3S)-4′-chloro-3-(3,5-dimethyl-1H-pyrazol-1-yl)-1′,2′-dihydrospiro[cyclopentane-1,3′-pyrrolo[2,3-b]pyridin]-5′-yl)-2-fluoro-N,N-dimethylbenzamide] displayed a Ki of 69.3 nM. To `CN(C)C(=O)c1c(N)ccc(-c2cnc3c(c2Cl)[C@]2(CC[C@H](n4cc(C(F)(F)F)cn4)C2)CN3)c1F` (relative stereo) [Compound 164a, 6-Amino-3-((1R,3S)-4′-chloro-3-(4-(trifluoromethyl)-1H-pyrazol-1-yl)-1′,2′-dihydrospiro[cyclopentane-1,3′-pyrrolo[2,3-b]pyridin]-5′-yl)-2-fluoro-N,N-dimethylbenzamide] belongs 6.65 nM; to `COc1c(-c2ccc(N)c(C(=O)N(C)C)c2F)cnc2c1[C@@]1(CN2)C[C@@H]1C` (relative stereo) [Compound 165a, 6-Amino-2-fluoro-3-((1R,2S)-4′-methoxy-2-methyl-1′,2′-dihydrospiro[cyclopropane-1,3′-pyrrolo[2,3-b]pyridin]-5′-yl)-N,N-dimethylbenzamide], 6.41 nM. Regarding `Cc1nccn1[C@H]1CC[C@@]2(CNc3ncc(-c4ccc(N)c(C(=O)N(C)C)c4F)c(Cl)c32)C1` (relative stereo) [Compound 167a, 6-Amino-3-((1R,3S)-4′-chloro-3-(2-methyl-1H-imidazol-1-yl)-1′,2′-dihydrospiro[cyclopentane-1,3′-pyrrolo[2,3-b]pyridin]-5′-yl)-2-fluoro-N,N-dimethylbenzamide], the Ki turned out to be 163 nM. For `CCc1cnn([C@H]2CC[C@@]3(CNc4ncc(-c5ccc(N)c(C(=O)N(C)C)c5F)c(Cl)c43)C2)c1` (relative stereo) [Compound 170a, 6-Amino-3-((1R,3S)-4′-chloro-3-(4-ethyl-1H-pyrazol-1-yl)-1′,2′-dihydrospiro[cyclopentane-1,3′-pyrrolo[2,3-b]pyridin]-5′-yl)-2-fluoro-N,N-dimethylbenzamide], the affinity corresponds to a Ki of 5.54 nM.

Consider `CN(C)C(=O)c1c(N)ccc(-c2cnc3c(c2Cl)[C@]2(CC[C@H](n4cc(Cl)cn4)C2)CN3)c1F` (relative stereo) [Compound 171a, 6-Amino-3-((1R,3S)-4′-chloro-3-(4-chloro-1H-pyrazol-1-yl)-1′,2′-dihydrospiro[cyclopentane-1,3′-pyrrolo[2,3-b]pyridin]-5′-yl)-2-fluoro-N,N-dimethylbenzamide], for which the Ki was 6.58 nM. To `CN(C)C(=O)c1c(N)ccc(-c2cnc3c(c2Cl)[C@]2(CC[C@H](Oc4ccccn4)C2)CN3)c1F` (relative stereo) [Compound 173a, 6-Amino-3-((1R,3S)-4′-chloro-3-(pyridin-2-yloxy)-1′,2′-dihydrospiro[cyclopentane-1,3′-pyrrolo[2,3-b]pyridin]-5′-yl)-2-fluoro-N,N-dimethylbenzamide] belongs 6.75 nM; to `Cc1cn([C@H]2CC[C@@]3(CNc4ncc(-c5ccc(N)c(C(=O)N(C)C)c5F)c(Cl)c43)C2)nc1N` (relative stereo) [Compound 177a, 6-Amino-3-((1R,3S)-3-(3-amino-4-methyl-1H-pyrazol-1-yl)-4′-chloro-1′,2′-dihydrospiro[cyclopentane-1,3′-pyrrolo[2,3-b]pyridin]-5′-yl)-2-fluoro-N,N-dimethylbenzamide], 14.7 nM.

Compound `Cc1cnn([C@H]2CC[C@@]3(CNc4ncc(-c5ccc(N)c(C(=O)N(C)C)c5F)c(Cl)c43)C2)c1N` (relative stereo) [Compound 178a, 6-Amino-3-((1R,3S)-3-(5-amino-4-methyl-1H-pyrazol-1-yl)-4′-chloro-1′,2′-dihydrospiro[cyclopentane-1,3′-pyrrolo[2,3-b]pyridin]-5′-yl)-2-fluoro-N,N-dimethylbenzamide] registered a Ki of 15.9 nM. `CN(C)C(=O)c1c(N)ccc(-c2cnc3c(c2Cl)[C@]2(CC[C@H](n4cc(C(N)=O)cn4)C2)CN3)c1F` (relative stereo) [Compound 180a, 1-((1R,3S)-5′-(4-Amino-3-(dimethylcarbamoyl)-2-fluorophenyl)-4′-chloro-1′,2′-dihydrospiro[cyclopentane-1,3′-pyrrolo[2,3-b]pyridin]-3-yl)-1H-pyrazole-4-carboxamide] registered a Ki of 46.1 nM.

Take `CN(C)C(=O)c1c(N)ccc(-c2cnc3c(c2Cl)[C@]2(CC[C@H](n4ccccc4=O)C2)CN3)c1F` (relative stereo) [Compound 196a, 6-Amino-3-((1R,3S)-4′-chloro-3-(2-oxopyridin-1(2B)-yl)-1′,2′-dihydrospiro[cyclopentane-1,3′-pyrrolo[2,3-b]pyridin]-5′-yl)-2-fluoro-N,N-dimethylbenzamide]: the affinity, expressed as Ki, was 97.6 nM. With `CN(C)C(=O)c1c(N)ccc(-c2cnc3c(c2Cl)[C@@]2(CN3)C[C@@H]2c2ccncc2)c1F` (relative stereo) [Compound 198a, 6-Amino-3-((1R,2R)-4′-chloro-2-(pyridin-4-yl)-1′,2′-dihydrospiro[cyclopropane-1,3′-pyrrolo[2,3-b]pyridin]-5′-yl)-2-fluoro-N,N-dimethylbenzamide], the Ki stood at 15.2 nM. `CN(C)C(=O)c1c(N)ccc(-c2cnc3c(c2Cl)[C@@]2(CN3)C[C@@H]2c2ccccc2)c1F` (relative stereo) [Compound 201a, 6-Amino-3-((1R,2R)-4′-chloro-2-phenyl-1′,2′-dihydrospiro[cyclopropane-1,3′-pyrrolo[2,3-b]pyridin]-5′-yl)-2-fluoro-N,N-dimethylbenzamide] returned a Ki of 3.58 nM.

Turning to `CN(C)C(=O)c1c(N)ccc(-c2cnc3c(c2Cl)[C@]2(CC[C@H](CO)C2)CN3)c1F` (relative stereo) [Compound 259a, 6-Amino-3-((1R,3S)-4′-chloro-3-(hydroxymethyl)-1′,2′-dihydrospiro[cyclopentane-1,3′-pyrrolo[2,3-b]pyridin]-5′-yl)-2-fluoro-N,N-dimethylbenzamide], the affinity, expressed as Ki, was 6.1 nM.
